Test system: LG0703-F948-PDC spheroids with HUVEC/MSC, viability
Experiment: Anticancer human tumor LG0703-F948-PDC patient-derived lung adenocarcinoma cell line growth inhibition [IpAb]
Details: for IC50: curve of first compound; for viability, T/C: stronger effect = lower value
In short: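 Combinations with ipatasertib or abemaciclib were tested on tumour spheroids holding HUVEC (25%) and MSC (15%) alongside 60% malignant cells. Top concentration was at or near clinical Cmax (10 microM if undefined), descending in half-log steps.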

[1] = second compound 0.01 µM, first compound 0.00316 µM
[2] = second compound 0.01 µM, first compound 0.01 µM
[3] = second compound 0.01 µM, first compound 0.0316 µM
[4] = second compound 0.01 µM, first compound 0.1 µM
[5] = second compound 0.0316 µM, first compound 0.00316 µM
[6] = second compound 0.0316 µM, first compound 0.01 µM
[7] = second compound 0.0316 µM, first compound 0.0316 µM
[8] = second compound 0.0316 µM, first compound 0.1 µM
[9] = second compound 0.1 µM, first compound 0.00316 µM
[10] = second compound 0.1 µM, first compound 0.01 µM
[11] = second compound 0.1 µM, first compound 0.0316 µM
[12] = second compound 0.1 µM, first compound 0.1 µM
[13] = second compound 0.316 µM, first compound 0.00316 µM
[14] = second compound 0.316 µM, first compound 0.01 µM
[15] = second compound 0.316 µM, first compound 0.0316 µM
[16] = second compound 0.316 µM, first compound 0.1 µM
[17] = second compound 1 µM, first compound 0.00316 µM
[18] = second compound 1 µM, first compound 0.01 µM
[19] = second compound 1 µM, first compound 0.0316 µM
[20] = second compound 1 µM, first compound 0.1 µM
[21] = second compound 0.01 µM, first compound 0.316 µM
[22] = second compound 0.01 µM, first compound 1 µM
[23] = second compound 0.01 µM, first compound 3.16 µM
[24] = second compound 0.01 µM, first compound 10 µM
[25] = second compound 0.0316 µM, first compound 0.316 µM
[26] = second compound 0.0316 µM, first compound 1 µM
[27] = second compound 0.0316 µM, first compound 3.16 µM
[28] = second compound 0.0316 µM, first compound 10 µM
[29] = second compound 0.1 µM, first compound 0.316 µM
[30] = second compound 0.1 µM, first compound 1 µM
[31] = second compound 0.1 µM, first compound 3.16 µM
[32] = second compound 0.1 µM, first compound 10 µM
[33] = second compound 0.316 µM, first compound 0.316 µM
[34] = second compound 0.316 µM, first compound 1 µM
[35] = second compound 0.316 µM, first compound 3.16 µM
[36] = second compound 0.316 µM, first compound 10 µM
[37] = second compound 1 µM, first compound 0.316 µM
[38] = second compound 1 µM, first compound 1 µM
[39] = second compound 1 µM, first compound 3.16 µM
[40] = second compound 1 µM, first compound 10 µM
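Also: spheroids exposed to compounds for seven days before readout.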
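For viability, T/C in this document: T/C percent relative to DMSO vehicle wells set as 100% viability.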

Structure (SMILES)	IC50 (second compound 0.01 µM)	IC50 (second compound 0.0316 µM)	IC50 (second compound 0.1 µM)	IC50 (second compound 0.316 µM)	IC50 (second compound 1 µM)	viability, T/C [3]	viability, T/C [4]	viability, T/C [7]	viability, T/C [8]	viability, T/C [11]	viability, T/C [12]	viability, T/C [15]	viability, T/C [16]	viability, T/C [19]	viability, T/C [20]	viability, T/C [21]	viability, T/C [22]	viability, T/C [25]	viability, T/C [26]	viability, T/C [29]	further results
CC(C)n1nc(-c2ccc3oc(N)nc3c2)c2c(N)ncnc21 + CCN1CCN(Cc2ccc(Nc3ncc(F)c(-c4cc(F)c5nc(C)n(C(C)C)c5c4)n3)nc2)CC1	4.38 nM	3.3 nM	4.23 nM	6.16 nM	3.98 nM	24%	21.4%	22.3%	21.8%	29.3%	22.3%	32%	24.8%	44.1%	28.8%						viability, T/C (second compound 0.01 µM, first compound 0.000316 µM): 112%; viability, T/C (second compound 0.01 µM, first compound 0.001 µM): 78.6%; viability, T/C [1]: 56.5%; viability, T/C [2]: 38%; viability, T/C (second compound 0.0316 µM, first compound 0.000316 µM): 87.9%; viability, T/C (second compound 0.0316 µM, first compound 0.001 µM): 70.1%; viability, T/C [5]: 52%; viability, T/C [6]: 33.9%; viability, T/C (second compound 0.1 µM, first compound 0.000316 µM): 87.4%; viability, T/C (second compound 0.1 µM, first compound 0.001 µM): 71.2%; viability, T/C [9]: 52.1%; viability, T/C [10]: 40.5%; viability, T/C (second compound 0.316 µM, first compound 0.000316 µM): 82.5%; viability, T/C (second compound 0.316 µM, first compound 0.001 µM): 77.1%; viability, T/C [13]: 58.4%; viability, T/C [14]: 43%; viability, T/C (second compound 1 µM, first compound 0.000316 µM): 90%; viability, T/C (second compound 1 µM, first compound 0.001 µM): 65%; viability, T/C [17]: 48.1%; viability, T/C [18]: 46.6%
CC1(C)CCC(CN2CCN(c3ccc(C(=O)NS(=O)(=O)c4ccc(NCC5CCOCC5)c([N+](=O)[O-])c4)c(Oc4cnc5[nH]ccc5c4)c3)CC2)=C(c2ccc(Cl)cc2)C1 + CCN1CCN(Cc2ccc(Nc3ncc(F)c(-c4cc(F)c5nc(C)n(C(C)C)c5c4)n3)nc2)CC1	5080 nM	5000 nM	4920 nM	4120 nM	1290 nM	102%	100%	81.8%	102%	92.4%	86.8%	87.9%	88.8%	85%	79%	100%	87.2%	84.3%	91%	72.3%	viability, T/C [23]: 77.9%; viability, T/C [24]: 13.5%; viability, T/C [27]: 75.3%; viability, T/C [28]: 11.4%; viability, T/C [30]: 88.5%; viability, T/C [31]: 73.8%; viability, T/C [32]: 11.3%; viability, T/C [33]: 79.9%; viability, T/C [34]: 79%; viability, T/C [35]: 62.6%; viability, T/C [36]: 11.1%; viability, T/C [37]: 46.9%; viability, T/C [38]: 65.8%; viability, T/C [39]: 36.9%; viability, T/C [40]: 2.51%
CCCS(=O)(=O)Nc1ccc(F)c(C(=O)c2c[nH]c3ncc(-c4ccc(Cl)cc4)cc23)c1F + CCN1CCN(Cc2ccc(Nc3ncc(F)c(-c4cc(F)c5nc(C)n(C(C)C)c5c4)n3)nc2)CC1	> 10000 nM	> 10000 nM	> 10000 nM	> 10000 nM	> 10000 nM	112%	115%	94.5%	86.9%	91%	81.6%	89%	97.3%	90.6%	68.2%	101%	99.1%	95.1%	89.5%	91.7%	viability, T/C [23]: 100%; viability, T/C [24]: 59.5%; viability, T/C [27]: 90.9%; viability, T/C [28]: 67.2%; viability, T/C [30]: 90.9%; viability, T/C [31]: 87.2%; viability, T/C [32]: 59.1%; viability, T/C [33]: 76.6%; viability, T/C [34]: 88.1%; viability, T/C [35]: 79%; viability, T/C [36]: 51.5%; viability, T/C [37]: 52.5%; viability, T/C [38]: 80%; viability, T/C [39]: 75.6%; viability, T/C [40]: 44.8%
COc1c(OCCCN2CCOCC2)ccc2c3n(c(=NC(=O)c4cnc(N)nc4)nc12)CCN3 + CCN1CCN(Cc2ccc(Nc3ncc(F)c(-c4cc(F)c5nc(C)n(C(C)C)c5c4)n3)nc2)CC1	36.7 nM	32.2 nM	30.6 nM	25.3 nM	17 nM	58.3%	20.7%	47.6%	22.8%	48%	21.2%	43.7%	23.7%	33.9%	24.6%	5.32%	3.66%	4.08%	3.07%	5.61%	viability, T/C [1]: 101%; viability, T/C [2]: 79.2%; viability, T/C [5]: 90.4%; viability, T/C [6]: 82.8%; viability, T/C [9]: 85.4%; viability, T/C [10]: 77.1%; viability, T/C [30]: 3.57%; viability, T/C [13]: 81.6%; viability, T/C [14]: 71.2%; viability, T/C [33]: 9.48%; viability, T/C [34]: 9.41%; viability, T/C [17]: 82.3%; viability, T/C [18]: 63%; viability, T/C [37]: 19.3%; viability, T/C [38]: 11.8%

Source: PubChem BioAssay AID2060330 (Molecular Pharmacology Branch, DTP, NCI, 2025)
